Test results published in the supplement of paper PMC11208160.

assay: recombinant UMI read abundance after kanamycin selection (control-corrected) (log10(CPM+1)); higher = more efficient recombination; extreme values may be limits of the assay; sequences stand for … in AGTGCAGAGAAAATCGGCCAGTTTTCTCTGCCTGCAGTCCGCATGCCGTGGGACCCCTTGGGTTCTAACCTGTTGCCTAGATTTATGCAGCGGACTGCCTTTCTCCCAAAGTGATAAACCGG…AGGTTGGTTTCACT; site = the 11-nt donor
Description: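 Pooled E. coli donor-specificity screen for the IS621 bridge recombinase. Each library member carries a reprogrammed 11-nt donor and a full-length LE bridge RNA expressed in cis from the natural promoter, with a paired donor-binding loop (8-nt LDG + 4-nt RDG) and a target-binding loop fixed to T5. It is co-electroporated with a T5 target plasmid; recombinase is induced with 0.07 mM IPTG and recombinants are selected on kanamycin. UMIs are counted as CPM, averaged over two biological replicates and corrected by the unselected control. Molecule = full bridge RNA written as DNA, built from the T5 scaffold: LDG = donor specificity nt 1-8, RDG = reverse complement of nt 8-11.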
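Also: IS621 bridge recombinase in Escherichia coli cells against a fixed T5 target plasmid.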

In order of falling “recombinant UMI read abundance (log10)” value:
1. ACAATGTCATGGACCGGTTTTCCCGGTAATCCGTATTTGCG (site ACAATGTCTCG)  3.04
2. AATGTGTCATGGACCGGTTTTCCCGGTAATCCGTATTTGTC (site AATGTGTCTGA)  2.97
3. ACACGAACATGGACCGGTTTTCCCGGTAATCCGTATTTGTC (site ACACGAACTGA)  2.77
4. ACACATTCATGGACCGGTTTTCCCGGTAATCCGTATTTGAC (site ACACATTCTGT)  2.74
5. ACACATGCATGGACCGGTTTTCCCGGTAATCCGTATTTGAC (site ACACATGCTGT)  2.6
6. ACACATGCATGGACCGGTTTTCCCGGTAATCCGTATTTGAC (site ACACATACTGT)  2.59
7. ACAATCGCATGGACCGGTTTTCCCGGTAATCCGTATTTGAA (site ACAATCGCTTT)  2.55
8. ACACAAACATGGACCGGTTTTCCCGGTAATCCGTATTTGTC (site ACACAAACTGA)  2.41
9. AATTTAACATGGACCGGTTTTCCCGGTAATCCGTATTTGCT (site AATTTAACTAG)  2.28
10. AATTGTGCATGGACCGGTTTTCCCGGTAATCCGTATTTGAC (site AATTGTGCTGT)  2.25
11. ACACCAGCATGGACCGGTTTTCCCGGTAATCCGTATTTGAT (site ACACCAGCTAT)  2.01
12. ACACGAACATGGACCGGTTTTCCCGGTAATCCGTATTTGTC (site ACACGAACTTA)  1.96
13. AATGTGTCATGGACCGGTTTTCCCGGTAATCCGTATTTGAC (site TATGTGTCTGT)  1.95
14. AATTTAACATGGACCGGTTTTCCCGGTAATCCGTATTTGCT (site AATCTAACTAG)  1.95
15. AATTATGCATGGACCGGTTTTCCCGGTAATCCGTATTTGCA (site AATTATGCTTG)  1.85
16. ACACGAACATGGACCGGTTTTCCCGGTAATCCGTATTTGTC (site ACACGAACTAA)  1.83
17. ACACGAACATGGACCGGTTTTCCCGGTAATCCGTATTTGTC (site ACACGAACTGG)  1.74
18. ACACATGCATGGACCGGTTTTCCCGGTAATCCGTATTTGAC (site ACACATCCTGT)  1.71
19. AATTTAACATGGACCGGTTTTCCCGGTAATCCGTATTTGCT (site AATATAACTAG)  1.68
20. AATTGGACATGGACCGGTTTTCCCGGTAATCCGTATTTGAC (site TATTGGACTGT)  1.67
21. ACACGAACATGGACCGGTTTTCCCGGTAATCCGTATTTGTC (site ACACGAACTGT)  1.41
22. ACACGAACATGGACCGGTTTTCCCGGTAATCCGTATTTGTC (site ACACAAACTGA)  1.4
23. ACACCCACATGGACCGGTTTTCCCGGTAATCCGTATTTGAG (site ACACCCACTCT)  1.37
24. ACACATCCATGGACCGGTTTTCCCGGTAATCCGTATTTGAT (site ACACATCCTAT)  1.34
25. AATGTGTCATGGACCGGTTTTCCCGGTAATCCGTATTTGTC (site AATGTGTCTGG)  1.29
26. AATTGGACATGGACCGGTTTTCCCGGTAATCCGTATTTGAC (site AATTGGACTGT)  1.21
27. AATGTGTCATGGACCGGTTTTCCCGGTAATCCGTATTTGAC (site CATGTGTCTGT)  0.999
28. AATGTGTCATGGACCGGTTTTCCCGGTAATCCGTATTTGTC (site AATGTGTCTGC)  0.999
29. AATTGGACATGGACCGGTTTTCCCGGTAATCCGTATTTGAC (site CATTGGACTGT)  0.955
30. AATTTAACATGGACCGGTTTTCCCGGTAATCCGTATTTGCT (site AATGTAACTAG)  0.828
31. AATTACGCATGGACCGGTTTTCCCGGTAATCCGTATTTGGA (site AATTACGCTTC)  0.807
32. ACACATTCATGGACCGGTTTTCCCGGTAATCCGTATTTGAC (site ACACATACTGT)  0.745
33. AATTGTGCATGGACCGGTTTTCCCGGTAATCCGTATTTGCC (site AATTGTGCTGG)  0.735
34. AATGTGTCATGGACCGGTTTTCCCGGTAATCCGTATTTGAC (site ATTGTGTCTGT)  0.71
35. AATTGTACATGGACCGGTTTTCCCGGTAATCCGTATTTGTC (site AATTGTACTGA)  0.692
36. ACACAACCATGGACCGGTTTTCCCGGTAATCCGTATTTGAC (site ACACAGCCTGT)  0.668
37. ACACATGCATGGACCGGTTTTCCCGGTAATCCGTATTTGAC (site ACACATTCTGT)  0.598
38. AATTTATCATGGACCGGTTTTCCCGGTAATCCGTATTTGTT (site AATTTATCTAA)  0.558
39. AATTACGCATGGACCGGTTTTCCCGGTAATCCGTATTTGGA (site AATTAAGCTTC)  0.428
40. AATTCTGCATGGACCGGTTTTCCCGGTAATCCGTATTTGGA (site AATTATGCTTC)  0.384
41. AATGTGTCATGGACCGGTTTTCCCGGTAATCCGTATTTGTC (site AATGTGTCTGT)  0.364
42. AATTCTGCATGGACCGGTTTTCCCGGTAATCCGTATTTGGA (site AATTCTGCTTC)  0.349
43. AATTACGCATGGACCGGTTTTCCCGGTAATCCGTATTTGGA (site AATTATGCTTC)  0.344
44. ACACGAACATGGACCGGTTTTCCCGGTAATCCGTATTTGTC (site ACACGAACTCA)  0.338
45. ACACATTCATGGACCGGTTTTCCCGGTAATCCGTATTTGAC (site ACACATCCTGT)  0.331
46. ACAAATCCATGGACCGGTTTTCCCGGTAATCCGTATTTGAC (site ACAAATCCTGT)  0.255
47. AATTGGACATGGACCGGTTTTCCCGGTAATCCGTATTTGAC (site GATTGGACTGT)  0.231
48. AATTACGCATGGACCGGTTTTCCCGGTAATCCGTATTTGGA (site AATTAGGCTTC)  0.158
49. ACACATCCATGGACCGGTTTTCCCGGTAATCCGTATTTGAT (site ACACATCCTTT)  0.0785
50. AATTCTGCATGGACCGGTTTTCCCGGTAATCCGTATTTGGA (site AATTGTGCTTC)  0.0372
51. ACACATCCATGGACCGGTTTTCCCGGTAATCCGTATTTGAT (site ACACATCCTCT)  0.0152
52. AATTATGCATGGACCGGTTTTCCCGGTAATCCGTATTTGCA (site AATTATGCTTA)  0.00932
53. AATTATGCATGGACCGGTTTTCCCGGTAATCCGTATTTGCA (site AATTATGCTTT)  0.00931
54. AATTATGCATGGACCGGTTTTCCCGGTAATCCGTATTTGCA (site AATTATGCTTC)  0.00784
55. AATTCTGCATGGACCGGTTTTCCCGGTAATCCGTATTTGGA (site AATTTTGCTTC)  0.00758
56. AATGTGTCATGGACCGGTTTTCCCGGTAATCCGTATTTGAC (site GATGTGTCTGT)  0
57. ACAAACCCATGGACCGGTTTTCCCGGTAATCCGTATTTGGG (site ACAAACCCTCC)  0
58. ACAAATCCATGGACCGGTTTTCCCGGTAATCCGTATTTGAC (site ACACATCCTGT)  0
59. ACAAATCCATGGACCGGTTTTCCCGGTAATCCGTATTTGAC (site ACAGATCCTGT)  0
60. ACAAATCCATGGACCGGTTTTCCCGGTAATCCGTATTTGAC (site ACATATCCTGT)  0
61. ACACAAACATGGACCGGTTTTCCCGGTAATCCGTATTTGTC (site ACACCAACTGA)  0
62. ACACAAACATGGACCGGTTTTCCCGGTAATCCGTATTTGTC (site ACACGAACTGA)  0
63. ACACAAACATGGACCGGTTTTCCCGGTAATCCGTATTTGTC (site ACACTAACTGA)  0
64. ACACAACCATGGACCGGTTTTCCCGGTAATCCGTATTTGAC (site ACACAACCTGT)  0
65. ACACAACCATGGACCGGTTTTCCCGGTAATCCGTATTTGAC (site ACACACCCTGT)  0
66. ACACAACCATGGACCGGTTTTCCCGGTAATCCGTATTTGAC (site ACACATCCTGT)  0
67. ACACATCCATGGACCGGTTTTCCCGGTAATCCGTATTTGAT (site ACACATCCTGT)  0
68. ACACATTCATGGACCGGTTTTCCCGGTAATCCGTATTTGAC (site ACACATGCTGT)  0
69. ACACGAACATGGACCGGTTTTCCCGGTAATCCGTATTTGTC (site AAACGAACTGA)  0
70. ACACGAACATGGACCGGTTTTCCCGGTAATCCGTATTTGTC (site ACAAGAACTGA)  0
71. ACACGAACATGGACCGGTTTTCCCGGTAATCCGTATTTGTC (site ACACCAACTGA)  0
72. ACACGAACATGGACCGGTTTTCCCGGTAATCCGTATTTGTC (site ACACGAACTGC)  0
